Laboratory results reported in publication PMC10267570, “Characterization of the cholesterol biosynthetic pathway in Dioscorea transversa” (The Journal of Biological Chemistry, 2023).

Target: T1, CYP51Dt (D. transversa sterol 14α-demethylase)
T1 construct: gene CYP51; C-terminal hexa-histidine tag
Assay: UV–visible difference spectroscopy titration (type I spectrum) of purified P450; also turnover with CPRDt/NADPH by GC–MS
Format: binding, Dioscorea transversa

SMILES	Kd
C=C(CC[C@@H](C)[C@H]1CC[C@@]2(C)C3=C(CC[C@]12C)[C@@]1(C)CC[C@H](O)[C@@H](C)[C@@H]1CC3)C(C)C [compound 7, obtusifoliol]	0.8 ± 0.25 µM
CC(C)CCC[C@@H](C)[C@H]1CC[C@@]2(C)C3=C(CC[C@]12C)[C@@]1(C)CC[C@H](O)[C@@H](C)[C@@H]1CC3 [compound 19, 4-desmethyl-24,25-dihydrolanosterol]	2.4 ± 0.18 µM
